Entries after “also recorded” stand apart in the source; their conditions may differ. No end group written: not given here.
How the values were obtained:
[1] = LPS aggregation, dynamic light scattering; conditions: peptide 8 and 16 μg/mL, LPS 25 μM
Protocol: The LPS molecule were dissolved in chloroform:methanol (2:1) then the stock solution was sonicated at 40° C. for 20 minutes and then kept at 4° C. overnight. The stock solution were diluted to 25 μM by using 20 mM sodium phosphate buffer with 150 mM sodium chloride and then at 4° C. overnight for use. Peptide concentration was diluted to 8 or 16 μg/mL. After the LPS solution was interacted with the peptide solution, the particle size and distribution analysis was measured by dynamic light scattering in Malvern Zetasizer ZS (Malvern, UK).

[2] = test system: LPS (Control Standard Endotoxin); assay: Binding and neutralization of LPS, Limulus Amebocyte Lysate (LAL) assay; format: biochemical; conditions: peptide 8-128 μg/mL, CSE 5EU
Protocol: The abilities of the anti-endotoxin polypeptides to bind and neutralize LPS were assessed using Limulus Amebocyte Lysate (LAL) assay (Cape Cod Inc, East Falmouth, Mass., USA). 25 μL of different peptide concentration (128, 64, 32, 16, and 8 μg/mL) were mixed with 25 μL CSE (Control Standard Endotoxin) (5EU) in a 96-well plate, and 50 μL of Pyrochrome® reagent was added to wells immediately. The absorbance at 405 nm was measured by microplate reader at 37° C. for 25 minutes.

[3] = Peptide-induced calcein leakage of POPC/POPG LUVs
Protocol: (§1) In this embodiment, the large unilamellar vesicles (LUVs) of POPC/LPS (POPC:LPS=12.5:1 mol/mol), POPC/cholesterol (POPC:cholesterol=2:1 mol/mol), and POPC:POPG (POPC:POPG=3:1 mol/mol) were prepared by the extrusion method with Avanti small-volume extrusion apparatus (Avanti Polar Lipid). Calcein-filed LUVs were prepared by calcein-containing buffer (70 mM calcein and 10 mM Tris at pH 7.4). Peptide-induced calcein leakages were measured by Perkin-Elmer luminescence spectrofluorimeter at excitation and emission wavelengths of 496 and 515 nm, respectively. Leakage is expressed as a percentage relative to the total amount of dye released by addition of 100 mg/mL of Triton X-100, which represented 100% leakage (the maximum fluorescence intensity).
(§2) The degree of leakage induced by various concentrations of polypeptides was estimated by: % leakage=(F−F0)/(Fr−F0)×100%, wherein the F0 is the initial fluorescence intensity observed without peptide, and Fr is the fluorescence intensity of 100% leakage.

[4] = test system: gram-positive and negative bacteria; assay: Antibacterial activity and salt resistance, broth microdilution (MIC); format: cell-based
Protocol: (§3) The antibacterial activities were determined by the standard broth microdilution method of National Committee for Clinical Laboratory Standards with the MH and LYM broth. MH or LYM broth with 50, 100, 200, or 300 mM NaCl (containing 5.4 mM KCl, 5.6 mM Na2HPO4, 0.5 mM MgSO4, and 1.0 mM sodium citrate, 0.4 mg of ZnCl2, 2.0 mg of FeCl3.6H2O, 0.1 mg of CuSO4.5H2O, 0.1 mg of MnSO4.H2O, 0.1 mg of Na2B4O7.10H2O, 700 mg of amino acid mixtures without tryptophan (Clontech), and 20 mg of L-Tryptophan, 2% vitamin mixture (100×, Sigma) and glucose at final concentration of 2%) were used to serially dilute the anti-endotoxin polypeptide of the present invention to obtain anti-endotoxin polypeptide solutions with a concentration ranging from 3,200 to 100 μg/mL.
(§4) 1 μL of peptide solutions were mixed with 99 μL inoculums (5×10^5 CFU/mL) in polypropylene 96-well plates, respectively. The turbidity at OD600 nm was determined by ELISA plate reader (Thermo Max, Molecular Devices, Sunnyvale, Calif.). The absorbance of culture medium and inoculum without peptides were used as the negative and positive control, respectively. […] All peptides were tested in triplicate. […] KR12AGPKR6 peptide was very effective against bacteria in LYM broth condition (MIC=about 2 μg/mL).

Acinetobacter sp. = assay: Antibacterial activity, broth microdilution, Acinetobacter sp.; format: cell-based
Protocol: as §3, §4

[5] = Peptide-induced calcein leakage of POPC/LPS LUVs
Protocol: as §1, §2

Cytotoxicity, MTT assay = format: cell-based; conditions: mouse, J744A.1 cells, 64 μg/mL, read-out: survival rate
Protocol: In this embodiment, the cytotoxicity was evaluated by MTT assay. J744A.1 cells were seeded in a 96-well plate with 10^4 cells/100 μL/well and incubated for 24 hours. After removing the medium, 100 μL of fresh medium containing anti-endotoxin polypeptide (2 to 64 μg/mL) was added to the wells. After 24 hours incubation, the fresh medium with 0.5 mg/mL MTT was added and incubated for 3 hours. After the medium/MTT was removed, DMSO was added at 100 μL for dissolving the formazan crystal. Cell survival rate was calculated by measuring the absorbance at 450 nm using Multi-labeled Microplate Reader (VICTOR 3).

[6] = test system: NO production in J744A.1 cells; assay: Inhibition of LPS-induced NO production (Griess reagent); format: cell-based; conditions: LPS 150 ng/mL, peptide 2-32 μg/mL, 24 hours
Protocol: (§5) J744A.1 cells (3×10^5 cells) were seeded in a 24-well plate and incubated for 24 hours. Cells were washed by PBS and LPS (E. coli 026:B6 (SIGMA, 150 ng/mL)) and the anti-endotoxin polypeptide of the present invention (2-32 μg/mL) were added to the wells. After 24 hours treatment, culture supernatant was harvested and centrifuged at 1,000 rpm for 10 minutes. 50 μL of culture supernatant was mixed with 50 μL Griess reagent (SIGMA) in a 96-well plate and incubated at room temperature for 10 minutes. The absorbance at 540 nm was measured and the NO concentration was calculated. Additionally, the concentration of TNF-α in the culture supernatant was evaluated using ELISA kits (eBiosciences).

[7] = test system: TNF-α release in J744A.1 cells; assay: Inhibition of LPS-induced TNF-α release (ELISA); format: cell-based; conditions: LPS 150 ng/mL, peptide 2-32 μg/mL, 24 hours
Protocol: as §5

[8] = test system: E. coli O26:B6 LPS-induced endotoxemia; assay: Mouse model of endotoxemia; format: in vivo, C57BL/6 mice; conditions: 18 mg/kg LPS plus 10 mg/kg peptide i.p.
Protocol: 5-week old male C57BL/6 mice were purchased from National Laboratory Animal Center (Taiwan). Mice were divided into three groups (five in each group) with intraperitoneal (i.p.) injection of (a) 18 mg/kg of body weight E. coli O26:B6 LPS, (b) 18 mg/kg body weight LPS plus 10 mg/kg peptide, and (c) no treatment. Blood was collected via tail vein 1.5 hours after injection. Whole blood was centrifuged at 3,000 rpm at 4° C. for 10 minutes. After 24 hours, all mice were sacrificed. The lungs were removed and fixed in 4% formaldehyde buffer, and deparaffinized in UltraClear buffer (J. K. Baker) and graded ethanol. Histology of lung sections was performed by hematoxylin and eosin (H&E) staining. Tissue images were captured using light microscope (Eclipse E400, Nikon) with digital microscopy camera (AxioCam ICc 5, ZEISS).

[9] = POPC/LPS LUVs aggregation, dynamic light scattering; conditions: peptide 8 and 16 μg/mL
[10] = relative to Triton X-100 = 100%

| Substance | LPS aggregation and particle size [1] | LPS-neutralizing activity (LAL assay) [2] | calcein leaking activity [3] | antibacterial activity ([4]; 300 mM salt condition) | antibacterial effectiveness compared to other bacteria strain (Acinetobacter sp.) | calcein leaking activity [5] | antibacterial activity ([4]; MH or LYM broth) | viability at 24 h, 64 µg/mL (Cytotoxicity, MTT assay) [%] | inhibition of NO production [6] | calcein leakage [3, 10] [%] | inhibition of TNF-α release [7] | level of TNF-α in blood ([8]; blood 1.5 hours after injection) | proliferation of alveolar epithelial cells and pulmonary hemorrhage (lung histology) ([8]; lungs after 24 hours, H&E) | minimum inhibitory concentration (MIC) ([4]; high salt conditions) [µg/mL] | calcein leakage [5, 10] | POPC/LPS LUVs aggregation and particle size [9] | antibacterial activity ([4]; 200 mM NaCl) | antibacterial activity ([4]; low NaCl condition) |
| --- | --- | --- | --- | --- | --- | --- | --- | --- | --- | --- | --- | --- | --- | --- | --- | --- | --- | --- |
| KRIVQRIKDFLRAGPIKDFLR [KR12AGPKR6] | did not aggregate LPS and change particle size | only small effects | show leaking activities; also recorded: does-dependent calcein leaking activities | inactive totally | more effective | show leaking activities; also recorded: does-dependent calcein leaking activities | – | – | – | – | – | – | – | – | – | – | – | – |
| KRIVQRAGPIKDFLR (The anti-endotoxin polypeptide synthesized from the laboratory) [KR15AGP] | did not aggregate LPS and change particle size | only small effects | – | – | – | – | did not show any activity | – | – | – | – | – | – | – | – | – | – | – |
| Ac-KRIVQRIKDFLRAGPRRWWRW-NH2 (N-terminus and C-terminus assumed) [KR12AGPWR6] | promoted | better LPS-neutralizing activity; also recorded: neutralize downstream reaction dose-dependently | show leaking activities; also recorded: does-dependent calcein leaking activities | – | more effective | show leaking activities; also recorded: does-dependent calcein leaking activities | – | ~70 | inhibit concentration-dependently | ~70 | inhibited | significantly lower; also recorded: suppress | significantly decreased; also recorded: improve | 2 to 4 | about 80% | promoted | – | – |
| KRIVQRIKDFLRAGPRRLVRI (The anti-endotoxin polypeptide synthesized from the laboratory) [KR12AGPVR6] | did not aggregate LPS and change particle size | only small effects | show leaking activities; also recorded: does-dependent calcein leaking activities | – | more effective | show leaking activities; also recorded: does-dependent calcein leaking activities | – | – | – | – | – | – | – | – | – | – | lost its activities | high activities |

— patent US10611799B2, “Anti-endotoxin polypeptide” (priority 2017, dated 2020)
